The supplement of paper PMC10331698
± gives the standard deviation of the averaged measurements.

Legend:
Experiment in all cases: level (log10 ratio to DMSO vehicle control); higher = higher biomarker level / cell amount than vehicle control
Details in all cases: in DMSO
[1] = compound: FC(F)(F)C(F)(F)CNCC(F)(F)C(F)(F)F [Bis(1H,1H-perfluoropropyl)amine]
Procedure: (§1)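 BioMAP Diversity Plus panel of 12 human primary cell co-culture systems (3C, 4H, LPS, SAg, BT, BF4T, BE3C, CASM3C, HDF3CGF, KF3CT, MyoF, Mphg). Compounds were added 1 h before stimulation and left for 24 h (MyoF 48 h; BT 72 h for soluble read-outs or 6 d for IgG). Biomarkers were read by ELISA, cytotoxicity by SRB, PBMC viability and proliferation by Alamar Blue. Each well value was divided by the mean of 8 DMSO control wells on the same plate and log10 transformed; duplicate blinded samples were tested at 4 concentrations.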

Nonafluoropentanamide = compound: NC(=O)C(F)(F)C(F)(F)C(F)(F)C(F)(F)F [Nonafluoropentanamide]
Procedure: as §1

[2] = compound: O=C(O)C(F)(F)C(F)(F)C(F)(F)C(F)(F)C(F)(F)C(F)(F)C(F)(F)C(F)(F)C(F)(F)C(F)F [11-H-Perfluoroundecanoic acid]
Procedure: as §1

[3] = compound: O=C(O)C=CC(F)(C(F)(F)F)C(F)(F)F [3-(Perfluoroisopropyl)-2-propenoic acid]
Procedure: as §1

[4] = compound: O=S(=O)(O)C(F)(F)C(F)(F)C(F)(F)C(F)(F)C(F)(F)C(F)(F)C(F)(F)C(F)(F)C(F)(F)C(F)(F)F [Sodium perfluorodecanesulfonate]
Procedure: as §1

Hexafluoroamylene glycol = compound: OCC(F)(F)C(F)(F)C(F)(F)CO [Hexafluoroamylene glycol]
Procedure: as §1

Test System: CASM3C:CD87/uPAR
- level (log10) ([1]; 6700 nM): -0.0255 ± 0.012
- level (log10) ([1]; 20000 nM): -0.0155 ± 0.019
- level (log10) ([1]; 60000 nM): -0.012 ± 0.035
- level (log10) (Nonafluoropentanamide; 6700 nM): -0.0215 ± 0.013
- level (log10) (Nonafluoropentanamide; 20000 nM): -0.023 ± 0.0014
- level (log10) (Nonafluoropentanamide; 60000 nM): 0.0025 ± 0.00071
- level (log10) ([2]; 6700 nM): -0.0165 ± 0.011
- level (log10) ([2]; 20000 nM): -0.025 ± 0.0071
- level (log10) ([3]; 6700 nM): -0.006 ± 0.0057
- level (log10) ([3]; 20000 nM): -0.0135 ± 0.012
- level (log10) ([3]; 60000 nM): -0.015 ± 0.0042
- level (log10) ([4]; 1500 nM): 0.0455 ± 0.021
- level (log10) ([4]; 4400 nM): -0.0065 ± 0.03
- level (log10) ([4]; 13000 nM): 0.042 ± 0.0042
- level (log10) ([4]; 40000 nM): 0.0075 ± 0.015
- level (log10) (Hexafluoroamylene glycol; 6700 nM): 0.003 ± 0.021
- level (log10) (Hexafluoroamylene glycol; 20000 nM): 0.0125 ± 0.011
- level (log10) (Hexafluoroamylene glycol; 60000 nM): -0.0195 ± 0.035

Test System: BE3C:Keratin 8/18
- level (log10) ([1]; 6700 nM): -0.008 ± 0.0028
- level (log10) ([1]; 20000 nM): -0.007 ± 0.0014
- level (log10) ([1]; 60000 nM): 0.006 ± 0.024
- level (log10) (Nonafluoropentanamide; 6700 nM): -0.0245 ± 0.0064
- level (log10) (Nonafluoropentanamide; 20000 nM): -0.035 ± 0.013
- level (log10) (Nonafluoropentanamide; 60000 nM): -0.026 ± 0.0099
- level (log10) ([2]; 6700 nM): -0.0125 ± 0.025
- level (log10) ([2]; 20000 nM): -0.0805 ± 0.019
- level (log10) ([3]; 6700 nM): 0.0015 ± 0.019
- level (log10) ([3]; 20000 nM): -0.0065 ± 0.012
- level (log10) ([3]; 60000 nM): 0.002 ± 0.0028
- level (log10) ([4]; 1500 nM): 0.0095 ± 0.015
- level (log10) ([4]; 4400 nM): 0.0065 ± 0.023
- level (log10) ([4]; 13000 nM): -0.0345 ± 0.012
- level (log10) ([4]; 40000 nM): -0.302 ± 0.0071
- level (log10) (Hexafluoroamylene glycol; 6700 nM): 0.002 ± 0.018
- level (log10) (Hexafluoroamylene glycol; 20000 nM): -0.0155 ± 0.013
- level (log10) (Hexafluoroamylene glycol; 60000 nM): 0.002 ± 0.02

Test System: BE3C:PAI-I
- level (log10) ([1]; 6700 nM): -0.0395 ± 0.00071
- level (log10) ([1]; 20000 nM): -0.022 ± 0.0057
- level (log10) ([1]; 60000 nM): -0.0075 ± 0.023
- level (log10) (Nonafluoropentanamide; 6700 nM): -0.087 ± 0.033
- level (log10) (Nonafluoropentanamide; 20000 nM): -0.137 ± 0.052
- level (log10) (Nonafluoropentanamide; 60000 nM): -0.117 ± 0.044
- level (log10) ([2]; 6700 nM): -0.082 ± 0.018
- level (log10) ([2]; 20000 nM): -0.367 ± 0.047
- level (log10) ([3]; 6700 nM): 0.0105 ± 0.00071
- level (log10) ([3]; 20000 nM): -0.003 ± 0.0042
- level (log10) ([3]; 60000 nM): 0.0065 ± 0.023
- level (log10) ([4]; 1500 nM): -0.0925 ± 0.036
- level (log10) ([4]; 4400 nM): -0.106 ± 0.022
- level (log10) ([4]; 13000 nM): -0.26 ± 0.058
- level (log10) ([4]; 40000 nM): -0.406 ± 0.013
- level (log10) (Hexafluoroamylene glycol; 6700 nM): -0.0205 ± 0.0021
- level (log10) (Hexafluoroamylene glycol; 20000 nM): -0.017 ± 0.0042
- level (log10) (Hexafluoroamylene glycol; 60000 nM): 0.0115 ± 0.0021

Test System: 3C:CD141/Thrombomodulin
- level (log10) ([1]; 6700 nM): 0.0205 ± 0.043
- level (log10) ([1]; 20000 nM): 0.0255 ± 0.04
- level (log10) ([1]; 60000 nM): 0.046 ± 0.058
- level (log10) (Nonafluoropentanamide; 6700 nM): -0.0635 ± 0.074
- level (log10) (Nonafluoropentanamide; 20000 nM): -0.0235 ± 0.0035
- level (log10) (Nonafluoropentanamide; 60000 nM): -0.069 ± 0.051
- level (log10) ([2]; 6700 nM): -0.0065 ± 0.005
- level (log10) ([2]; 20000 nM): -0.0255 ± 0.033
- level (log10) ([3]; 6700 nM): -0.0125 ± 0.023
- level (log10) ([3]; 20000 nM): -0.006 ± 0.0057
- level (log10) ([3]; 60000 nM): 0.0045 ± 0.016
- level (log10) ([4]; 1500 nM): -0.015 ± 0.031
- level (log10) ([4]; 4400 nM): -0.052 ± 0.013
- level (log10) ([4]; 13000 nM): -0.0325 ± 0.019
- level (log10) ([4]; 40000 nM): -0.0565 ± 0.0035
- level (log10) (Hexafluoroamylene glycol; 6700 nM): 0.0175 ± 0.052
- level (log10) (Hexafluoroamylene glycol; 20000 nM): -0.01 ± 0.033
- level (log10) (Hexafluoroamylene glycol; 60000 nM): -0.011 ± 0.088
